From patent US11305024B2, “Cross-linked polymer modified nanoparticles” (OREGON HEALTH & SCIENCE UNIVERSITY, priority 2015, dated 2022)

Legend:
[1] = Serum protection assay (siRNA in 50% human serum); assay type: in vitro ADME; conditions: 37° C.
Experimental: siRNA-nanoparticles were incubated with 50 v/v % human serum in PBS for a specified period of time (0, 0.5, 1, 2, 4, 8, 24, and 48 hours) at 37° C. under continuous shaking. At the end of each time point, the sample was mixed with proteinase K (200 μg/mL) and frozen at −80° C. to stop the enzymatic reaction. For the analysis, samples were thawed and mixed with 1.0 wt. % SDS in order to release siRNA from the nanoparticles. The sample was then mixed with an equal amount of 2× loading buffer and loaded into a 15% TBE-urea gel (BioRad). The gel ran at 100 V for the first 20 minutes and 150 V for another hour. The gel was then stained with SyBR Gold (Life Technologies) following the manufacturer's protocol and viewed in a UV chamber. The band intensity was analyzed by ImageJ software (National Institutes of Health, Bethesda, Md.). The fraction of intact siRNA was reported as a function of time that the siRNA-nanoparticles were in 50% serum.

HER2+ cell lines = assay: Growth inhibition by siHER2 in a panel of HER2+ cell lines; assay type: cell-based; conditions: 19 out of 20 HER2+ cell lines; read-out: dose of the siHER2 required to inhibit cell growth by 50% (G150)
BT474 = assay: Screening of siRNA in combination with paclitaxel, cell viability; assay type: cell-based; conditions: for Cell Viability (% of Scramble Control): 30 nM siRNA; for Enhanced Paclitaxel effect due to gene knockdown: over paclitaxel alone
Experimental: (§1) Cells were first treated with 30 nM siRNAs (and commercial DharmaFECT™) followed by 5 nM paclitaxel treatment 24 hours later. Cell viability was determined 3 days later. […] In short, knocking down HER2 had the greatest impact on paclitaxel toxicity in BT474 (having highest HER2 level). […] The effect of paclitaxel combined with siAKT1/BCL2 or siEPS8L1 was also significant. The best enhancement by siAKT1/BCL2 (38-41%) appeared to be with basal cells, HCC1954, BT549, and HCC70. EPS8L1 is involved in EGFR signaling and functions in cell migration.

BT549 = assay: as above; assay type: cell-based; conditions: for Cell Viability (% of Scramble Control): 30 nM siRNA; for Enhanced Paclitaxel effect due to gene knockdown: over paclitaxel alone
Experimental: as §1

HCC1954 [2] = assay: as above; assay type: cell-based; conditions: for Cell Viability (% of Scramble Control): 30 nM siRNA; for Enhanced Paclitaxel effect due to gene knockdown: over paclitaxel alone
Experimental: as §1

HCC70 = assay: as above; assay type: cell-based; conditions: for Cell Viability (% of Scramble Control): 30 nM siRNA; for Enhanced Paclitaxel effect due to gene knockdown: over paclitaxel alone
Experimental: as §1

SKBR3 = assay: as above; assay type: cell-based; conditions: for Cell Viability (% of Scramble Control): 30 nM siRNA; for Enhanced Paclitaxel effect due to gene knockdown: over paclitaxel alone
Experimental: as §1

HCC1954 [3] = conditions: in vitro and/or in mice; cited from earlier work
[4] = tested on: basal cells, HCC1954, BT549, and HCC70; assay: Screening of siRNA in combination with paclitaxel, basal cells as a group; assay type: cell-based
Experimental: as §1

Red blood cells = assay: Hemolysis; assay type: cell-based, human; conditions: 4 hours, 37° C.; nanoparticle 70 or 350 μg/mL (1× or 5×)
Experimental: Nanoparticles were tested at 1× and 5× of the intended human blood level. Studies of blood compatibility were performed following or with minor modification from the Nanotechnology Characterization Laboratory's (Frederick, Md.) published protocols.
Human blood was collected in the presence of EDTA, and serum was removed. Red blood cells were suspended at 1×10^9 cells per mL and exposed to nanoparticle (final concentrations of 70 or 350 μg/mL for 1× or 5×, respectively) for 4 hours and 37° C. Following centrifugation, absorbance of hemoglobin in the supernatants (at 542 nm) was measured and used to quantify percent hemolysis.

Platelet-rich plasma = assay: Platelet aggregation assay; set-up: species or system human; conditions: monitored for three minutes; 1× and 5×
Experimental: Platelet-rich plasma (PRP) was obtained following centrifugation of isolated blood (diluted in 3.2% sodium citrate, 1:10). The isolated blood was centrifuged at 200 g for 20 minutes. The supernatant (which contains PRP) was collected and maintained at room temperature prior to treatment. Following a 1-min incubation at 37° C. (baseline), reactions were initiated by addition of nanoparticle (70 or 350 μg/mL) or collagen related peptide (CRP; 100 μg/ml) and monitored for three minutes for optical density via an aggregometer (Chrono-log Corp).

luciferase = assay: Luciferase silencing by siLUC-loaded nanoconstructs in LM2-4luc+/H2N cells; assay type: cell-based; conditions: 13-130 nM GALA, 15 nM siRNA, NP/siRNA 50, non-cross-linked PEI, 2 days
Experimental: The LM2-4luc+/H2N cell line (over-expressing luciferase and HER2; J. M. du Manoir et al., 2006) was used for initial assessment of the nanoparticles for gene silencing efficacy when delivering siRNA against luciferase (siLUC). Cells were plated at 3000 cells/well in a 96-well plate. One day after seeding, cells were treated with siLUC-nanoparticles. The nanoparticles were loaded with siLUC at NP/siRNA ratio of 25 or 50 by mass. […] The commercially available transfection agent, DharmaFECT™ (Dharmacon, Lafayette, Colo.), with the same siLUC dose served as a positive control. Non-targeting or scrambled siRNA (siSCR) was used throughout as a negative control. After overnight incubation (−20 hours), cells were washed once to remove the nanoconstructs and replenished with a complete media. At 48 hours post-treatment, cells were lysed and analyzed for luciferase activity by the Luciferase Glow Assay Kit (Thermo Fisher Scientific, Waltham, Mass.) and protein concentration by the BCA protein assay kit (Thermo Fisher Scientific), following manufacturer's protocols. Luciferase activity of the lysate was normalized with the corresponding protein concentration in the same well and reported as a percentage of the untreated or siSCR controls. All treatments were performed with replicates.

[5] = metastatic solid tumor patients; cited from earlier work
[6] = BT474 (HER2 positive, luminal), DharmaFECT, paclitaxel −
[7] = BT474, then 5 nM paclitaxel 24 hours later (paclitaxel +)
[8] = BT549 (triple negative, basal), DharmaFECT, paclitaxel −
[9] = BT549, then 5 nM paclitaxel 24 hours later (paclitaxel +)
[10] = HCC1954 (HER2 positive, basal), DharmaFECT, paclitaxel −
[11] = HCC1954, then 5 nM paclitaxel 24 hours later (paclitaxel +)
[12] = HCC70 (triple negative, basal), DharmaFECT, paclitaxel −
[13] = HCC70, then 5 nM paclitaxel 24 hours later (paclitaxel +)
[14] = SKBR3 (HER2 positive, luminal), DharmaFECT, paclitaxel −
[15] = SKBR3, then 5 nM paclitaxel 24 hours later (paclitaxel +)

Molecule: siHER2: siRNA against HER2, SEQ ID NO. 1 and 2 (chain 1 CACGUUUGAGUCCAUGCCCAAUU; chain 2 UUGGGCAUGGACUCAAACGUGUU; listed as RNA, chemistry not given here)
- half-life [1]: about 1 hour
- time within which siHER2 was degraded ([1]; without nanoparticles): ≤ 0.5 h
- IC50 (HER2+ cell lines): < 5 nM
- Cell Viability (% of Scramble Control) (BT474; [6]): 35%
- Cell Viability (% of Scramble Control) (BT474; [7]): 26%
- Enhanced Paclitaxel effect due to gene knockdown (BT474; BT474): 32%
- Cell Viability (% of Scramble Control) (BT549; [8]): 51%
- Cell Viability (% of Scramble Control) (BT549; [9]): 40%
- Enhanced Paclitaxel effect due to gene knockdown (BT549; BT549): 19%
- Cell Viability (% of Scramble Control) (HCC1954 [2]; [10]): 68%
- Cell Viability (% of Scramble Control) (HCC1954 [2]; [11]): 49%
- Enhanced Paclitaxel effect due to gene knockdown (HCC1954 [2]; HCC1954): 6%
- Cell Viability (% of Scramble Control) (HCC70; [12]): 76%
- Cell Viability (% of Scramble Control) (HCC70; [13]): 49%
- Enhanced Paclitaxel effect due to gene knockdown (HCC70; HCC70): 21%
- Cell Viability (% of Scramble Control) (SKBR3; [14]): 51%
- Cell Viability (% of Scramble Control) (SKBR3; [15]): 33%
- Enhanced Paclitaxel effect due to gene knockdown (SKBR3; SKBR3): 6%

Molecule: pertuzumab
- resistance of HCC1954 (HCC1954 [3]): resistant

Molecule: siAKT1/BCL2: dual-targeting siRNA duplex, one strand targets AKT1, the other BCL2, SEQ ID NO. 7 and 8 (chain 1 AUUCAGUUUCACAUUGCUUGGUGAC; chain 2 GUCACCAAGAACUGUGACACAGAAGGG; listed as RNA, chemistry not given here)
- Cell Viability (% of Scramble Control) (BT474; [6]): 74%
- Cell Viability (% of Scramble Control) (BT474; [7]): 39%
- Enhanced Paclitaxel effect due to gene knockdown (BT474; BT474): 19%
- Cell Viability (% of Scramble Control) (BT549; [8]): 54%
- Cell Viability (% of Scramble Control) (BT549; [9]): 23%
- Enhanced Paclitaxel effect due to gene knockdown (BT549; BT549): 36%
- Cell Viability (% of Scramble Control) (HCC1954 [2]; [10]): 47%
- Cell Viability (% of Scramble Control) (HCC1954 [2]; [11]): 17%
- Enhanced Paclitaxel effect due to gene knockdown (HCC1954 [2]; HCC1954): 38%
- Cell Viability (% of Scramble Control) (HCC70; [12]): 42%
- Cell Viability (% of Scramble Control) (HCC70; [13]): 29%
- Enhanced Paclitaxel effect due to gene knockdown (HCC70; HCC70): 41%
- Cell Viability (% of Scramble Control) (SKBR3; [14]): 77%
- Cell Viability (% of Scramble Control) (SKBR3; [15]): 29%
- Enhanced Paclitaxel effect due to gene knockdown (SKBR3; SKBR3): 10%
- best enhancement of paclitaxel effect [4]: 38-41%

Molecule: siSCR: non-targeting or scrambled siRNA control, SEQ ID NO. 5 and 6 (chain 1 UGGUUUACAUGUCGACUAA; chain 2 UUAGUCGACAUGUAAACCA; listed as RNA, chemistry not given here) [reference compound]
- Cell Viability (% of Scramble Control) (BT474; [7]): 58%
- Cell Viability (% of Scramble Control) (BT549; [9]): 59%
- Cell Viability (% of Scramble Control) (HCC1954 [2]; [11]): 55%
- Cell Viability (% of Scramble Control) (HCC70; [13]): 70%
- Cell Viability (% of Scramble Control) (SKBR3; [15]): 39%

Molecule: Triton-X
- hemolysis of red blood cells (Red blood cells): complete blood lysis

Molecule: collagen related peptide
- platelet aggregation (Platelet-rich plasma): triggered aggregation immediately

Molecule: GALA
- effect of co-loaded peptide on silencing efficacy (luciferase): clearly enhanced silencing efficacy of the nanoconstructs

Molecule: [SH-].[SH-].[S]=[Mo]=[S] [tetrathiomolybdate]
- treated patients with mild copper deficiency who achieved stable disease [5]: five out of six

Molecule: N.N.[Cl][Pt][Cl] [cisplatin]
- resistance of HCC1954 (HCC1954 [3]): resistant
